From patent publication US4420484A, “Basic amino or ammonium antimicrobial agent-polyethylene glycol ester surfactant-betaine and/or amine oxide surfactant compositions and method of use therof” (Sterling Drug Inc., priority 1981, dated 1983)

system: Staphylococcus aureus ATCC 6538; assay: Compatibility with prototype vehicle, serial dilution test (MIC); type: cell-based; details: added vehicle 0 μg/ml; Id expressed as free base, IVa-IVc expressed as cation; 16-18 h, 37° C
Description: Compatability of the antimicrobial agents of Formula Id, Formula IIa, Formula IVa (A=Br), Formula IVb (A=Br) and Formula IVc (A=Br) with a prototype vehicle of the invention was tested by a serial dilution test against Staphylococcus aureus ATCC 6538. Volumes of two milliliters were used. Dilutions were in tryptose-phosphate broth. Incubation was for 16-18 hours at 37° C. Growth was verified with 2,3,5-triphenyltetrazoliumchloride. The inoculum was 1.8×10^5 viable cells per tube. There follows the formula of the prototype vehicle. […]

| SMILES | Minimum Inhibitory Concentration (MIC) [µg/mL] |
| --- | --- |
| CCCCCCCN=c1ccn(CCCCCCCCCCCCn2ccc(=NCCCCCCC)cc2)cc1 [Compound of Formula IVa] | 0.39 |
| CCCCCCCNC(=N)NC(=N)NCCCCCCNC(=N)NC(=N)NCCCCCCC [Compound of Formula Id] | 0.25 |

Second part, the molecule after the results:

| Minimum Inhibitory Concentration (MIC) [µg/mL] | SMILES |
| --- | --- |
| 0.5 | CCCCCCCCCCCCCC[N+](C)(C)Cc1ccccc1 [Compound of Formula IIa, benzalkonium chloride, reference compound] |
| 0.5 | CCCCCCCCN=c1ccn(CCCCCCCCCCn2ccc(=NCCCCCCCC)cc2)cc1 [Compound of Formula IVb] |
| 0.25 | CCCCC(CC)CN=c1ccn(CCCCCCCCCCCCn2ccc(=NCC(CC)CCCC)cc2)cc1 (stereo not shown) [Compound of Formula IVc] |

same assay, conditions: added vehicle 15.6 μg/ml; Id expressed as free base, IVa-IVc expressed as cation; 16-18 h, 37° C

| SMILES | Minimum Inhibitory Concentration (MIC) [µg/mL] |
| --- | --- |
| CCCCCCCN=c1ccn(CCCCCCCCCCCCn2ccc(=NCCCCCCC)cc2)cc1 [Compound of Formula IVa] | 0.195 |
| CCCCCCCNC(=N)NC(=N)NCCCCCCNC(=N)NC(=N)NCCCCCCC [Compound of Formula Id] | 0.25 |

Continued, values first:

| Minimum Inhibitory Concentration (MIC) [µg/mL] | SMILES |
| --- | --- |
| 0.5 | CCCCCCCCCCCCCC[N+](C)(C)Cc1ccccc1 [Compound of Formula IIa, benzalkonium chloride, reference compound] |
| 0.5 | CCCCCCCCN=c1ccn(CCCCCCCCCCn2ccc(=NCCCCCCCC)cc2)cc1 [Compound of Formula IVb] |
| 0.25 | CCCCC(CC)CN=c1ccn(CCCCCCCCCCCCn2ccc(=NCC(CC)CCCC)cc2)cc1 (stereo not shown) [Compound of Formula IVc] |

same assay, conditions: added vehicle 31.2 μg/ml; Id expressed as free base, IVa-IVc expressed as cation; 16-18 h, 37° C

| SMILES | Minimum Inhibitory Concentration (MIC) [µg/mL] |
| --- | --- |
| CCCCCCCN=c1ccn(CCCCCCCCCCCCn2ccc(=NCCCCCCC)cc2)cc1 [Compound of Formula IVa] | 0.39 |
| CCCCCCCNC(=N)NC(=N)NCCCCCCNC(=N)NC(=N)NCCCCCCC [Compound of Formula Id] | 0.25 |

The next lines start with the values.

| Minimum Inhibitory Concentration (MIC) [µg/mL] | SMILES |
| --- | --- |
| 0.5 | CCCCCCCCCCCCCC[N+](C)(C)Cc1ccccc1 [Compound of Formula IIa, benzalkonium chloride, reference compound] |
| 0.5 | CCCCCCCCN=c1ccn(CCCCCCCCCCn2ccc(=NCCCCCCCC)cc2)cc1 [Compound of Formula IVb] |
| 0.25 | CCCCC(CC)CN=c1ccn(CCCCCCCCCCCCn2ccc(=NCC(CC)CCCC)cc2)cc1 (stereo not shown) [Compound of Formula IVc] |

same assay, conditions: added vehicle 62.5 μg/ml; Id expressed as free base, IVa-IVc expressed as cation; 16-18 h, 37° C

| SMILES | Minimum Inhibitory Concentration (MIC) [µg/mL] |
| --- | --- |
| CCCCCCCN=c1ccn(CCCCCCCCCCCCn2ccc(=NCCCCCCC)cc2)cc1 [Compound of Formula IVa] | 0.39 |
| CCCCCCCNC(=N)NC(=N)NCCCCCCNC(=N)NC(=N)NCCCCCCC [Compound of Formula Id] | 0.25 |

More lines, now with the values ahead:

| Minimum Inhibitory Concentration (MIC) [µg/mL] | SMILES |
| --- | --- |
| 0.5 | CCCCCCCCCCCCCC[N+](C)(C)Cc1ccccc1 [Compound of Formula IIa, benzalkonium chloride, reference compound] |
| 0.5 | CCCCCCCCN=c1ccn(CCCCCCCCCCn2ccc(=NCCCCCCCC)cc2)cc1 [Compound of Formula IVb] |
| 0.25 | CCCCC(CC)CN=c1ccn(CCCCCCCCCCCCn2ccc(=NCC(CC)CCCC)cc2)cc1 (stereo not shown) [Compound of Formula IVc] |

same assay, conditions: added vehicle 125.0 μg/ml; Id expressed as free base, IVa-IVc expressed as cation; 16-18 h, 37° C

| SMILES | Minimum Inhibitory Concentration (MIC) [µg/mL] |
| --- | --- |
| CCCCCCCN=c1ccn(CCCCCCCCCCCCn2ccc(=NCCCCCCC)cc2)cc1 [Compound of Formula IVa] | 0.10 |
| CCCCCCCNC(=N)NC(=N)NCCCCCCNC(=N)NC(=N)NCCCCCCC [Compound of Formula Id] | 0.25 |

More lines, now with the values ahead:

| Minimum Inhibitory Concentration (MIC) [µg/mL] | SMILES |
| --- | --- |
| 0.5 | CCCCCCCCCCCCCC[N+](C)(C)Cc1ccccc1 [Compound of Formula IIa, benzalkonium chloride, reference compound] |
| 0.5 | CCCCCCCCN=c1ccn(CCCCCCCCCCn2ccc(=NCCCCCCCC)cc2)cc1 [Compound of Formula IVb] |
| 0.125 | CCCCC(CC)CN=c1ccn(CCCCCCCCCCCCn2ccc(=NCC(CC)CCCC)cc2)cc1 (stereo not shown) [Compound of Formula IVc] |

same assay, conditions: added vehicle 250.0 μg/ml; Id expressed as free base, IVa-IVc expressed as cation; 16-18 h, 37° C

| SMILES | Minimum Inhibitory Concentration (MIC) [µg/mL] |
| --- | --- |
| CCCCCCCN=c1ccn(CCCCCCCCCCCCn2ccc(=NCCCCCCC)cc2)cc1 [Compound of Formula IVa] | 0.10 |
| CCCCCCCNC(=N)NC(=N)NCCCCCCNC(=N)NC(=N)NCCCCCCC [Compound of Formula Id] | 0.25 |

Results, then the molecule that gave them:

| Minimum Inhibitory Concentration (MIC) [µg/mL] | SMILES |
| --- | --- |
| 0.5 | CCCCCCCCCCCCCC[N+](C)(C)Cc1ccccc1 [Compound of Formula IIa, benzalkonium chloride, reference compound] |
| 0.25 | CCCCCCCCN=c1ccn(CCCCCCCCCCn2ccc(=NCCCCCCCC)cc2)cc1 [Compound of Formula IVb] |
| 0.0625 | CCCCC(CC)CN=c1ccn(CCCCCCCCCCCCn2ccc(=NCC(CC)CCCC)cc2)cc1 (stereo not shown) [Compound of Formula IVc] |

same assay, conditions: added vehicle 500.0 μg/ml; Id expressed as free base, IVa-IVc expressed as cation; 16-18 h, 37° C

| SMILES | Minimum Inhibitory Concentration (MIC) [µg/mL] |
| --- | --- |
| CCCCCCCN=c1ccn(CCCCCCCCCCCCn2ccc(=NCCCCCCC)cc2)cc1 [Compound of Formula IVa] | 0.10 |
| CCCCCCCNC(=N)NC(=N)NCCCCCCNC(=N)NC(=N)NCCCCCCC [Compound of Formula Id] | 0.25 |

Results, then the molecule that gave them:

| Minimum Inhibitory Concentration (MIC) [µg/mL] | SMILES |
| --- | --- |
| 0.5 | CCCCCCCCCCCCCC[N+](C)(C)Cc1ccccc1 [Compound of Formula IIa, benzalkonium chloride, reference compound] |
| 0.125 | CCCCCCCCN=c1ccn(CCCCCCCCCCn2ccc(=NCCCCCCCC)cc2)cc1 [Compound of Formula IVb] |
| 0.125 | CCCCC(CC)CN=c1ccn(CCCCCCCCCCCCn2ccc(=NCC(CC)CCCC)cc2)cc1 (stereo not shown) [Compound of Formula IVc] |

same assay, conditions: added vehicle 1000.0 μg/ml; Id expressed as free base, IVa-IVc expressed as cation; 16-18 h, 37° C

| SMILES | Minimum Inhibitory Concentration (MIC) [µg/mL] |
| --- | --- |
| CCCCCCCN=c1ccn(CCCCCCCCCCCCn2ccc(=NCCCCCCC)cc2)cc1 [Compound of Formula IVa] | 0.195 |
| CCCCCCCNC(=N)NC(=N)NCCCCCCNC(=N)NC(=N)NCCCCCCC [Compound of Formula Id] | 0.25 |

The next lines start with the values.

| Minimum Inhibitory Concentration (MIC) [µg/mL] | SMILES |
| --- | --- |
| 1.0 | CCCCCCCCCCCCCC[N+](C)(C)Cc1ccccc1 [Compound of Formula IIa, benzalkonium chloride, reference compound] |
| 0.125 | CCCCCCCCN=c1ccn(CCCCCCCCCCn2ccc(=NCCCCCCCC)cc2)cc1 [Compound of Formula IVb] |
| 0.125 | CCCCC(CC)CN=c1ccn(CCCCCCCCCCCCn2ccc(=NCC(CC)CCCC)cc2)cc1 (stereo not shown) [Compound of Formula IVc] |

same assay, conditions: added vehicle 2000.0 μg/ml; Id expressed as free base, IVa-IVc expressed as cation; 16-18 h, 37° C

| SMILES | Minimum Inhibitory Concentration (MIC) [µg/mL] |
| --- | --- |
| CCCCCCCN=c1ccn(CCCCCCCCCCCCn2ccc(=NCCCCCCC)cc2)cc1 [Compound of Formula IVa] | 0.10 |
| CCCCCCCNC(=N)NC(=N)NCCCCCCNC(=N)NC(=N)NCCCCCCC [Compound of Formula Id] | 0.50 |

Continued, values first:

| Minimum Inhibitory Concentration (MIC) [µg/mL] | SMILES |
| --- | --- |
| 1.0 | CCCCCCCCCCCCCC[N+](C)(C)Cc1ccccc1 [Compound of Formula IIa, benzalkonium chloride, reference compound] |
| 0.125 | CCCCCCCCN=c1ccn(CCCCCCCCCCn2ccc(=NCCCCCCCC)cc2)cc1 [Compound of Formula IVb] |
| 0.125 | CCCCC(CC)CN=c1ccn(CCCCCCCCCCCCn2ccc(=NCC(CC)CCCC)cc2)cc1 (stereo not shown) [Compound of Formula IVc] |

same assay, conditions: added vehicle 4000.0 μg/ml; Id expressed as free base, IVa-IVc expressed as cation; 16-18 h, 37° C

| SMILES | Minimum Inhibitory Concentration (MIC) [µg/mL] |
| --- | --- |
| CCCCCCCN=c1ccn(CCCCCCCCCCCCn2ccc(=NCCCCCCC)cc2)cc1 [Compound of Formula IVa] | 0.195 |
| CCCCCCCNC(=N)NC(=N)NCCCCCCNC(=N)NC(=N)NCCCCCCC [Compound of Formula Id] | 0.50 |

The remaining lines, values ahead:

| Minimum Inhibitory Concentration (MIC) [µg/mL] | SMILES |
| --- | --- |
| 1.95 | CCCCCCCCCCCCCC[N+](C)(C)Cc1ccccc1 [Compound of Formula IIa, benzalkonium chloride, reference compound] |
| 0.25 | CCCCCCCCN=c1ccn(CCCCCCCCCCn2ccc(=NCCCCCCCC)cc2)cc1 [Compound of Formula IVb] |
| 0.25 | CCCCC(CC)CN=c1ccn(CCCCCCCCCCCCn2ccc(=NCC(CC)CCCC)cc2)cc1 (stereo not shown) [Compound of Formula IVc] |

same assay, conditions: added vehicle 8000.0 μg/ml; Id expressed as free base, IVa-IVc expressed as cation; 16-18 h, 37° C

| SMILES | Minimum Inhibitory Concentration (MIC) [µg/mL] |
| --- | --- |
| CCCCCCCN=c1ccn(CCCCCCCCCCCCn2ccc(=NCCCCCCC)cc2)cc1 [Compound of Formula IVa] | 0.10 |
| CCCCCCCNC(=N)NC(=N)NCCCCCCNC(=N)NC(=N)NCCCCCCC [Compound of Formula Id] | 0.50 |

Further lines, results first:

| Minimum Inhibitory Concentration (MIC) [µg/mL] | SMILES |
| --- | --- |
| 1.95 | CCCCCCCCCCCCCC[N+](C)(C)Cc1ccccc1 [Compound of Formula IIa, benzalkonium chloride, reference compound] |
| 0.25 | CCCCCCCCN=c1ccn(CCCCCCCCCCn2ccc(=NCCCCCCCC)cc2)cc1 [Compound of Formula IVb] |
| 0.25 | CCCCC(CC)CN=c1ccn(CCCCCCCCCCCCn2ccc(=NCC(CC)CCCC)cc2)cc1 (stereo not shown) [Compound of Formula IVc] |
